The text below walks through data of US6849644B2, “Isoquinoline derivatives useful in the treatment of CNS disorders” (SmithKline Beecham p.l.c., priority 2000, dated 2005).

SMILES strings stand for the structures. Structures can show the parent of a compound that is named as a salt.

For the test, the target named is T1, human cloned 5-HT6 receptors (Homo sapiens, UniProt P50406).
T1 construct: expressed in transfected cells
T1 sequence (P50406 whole entry): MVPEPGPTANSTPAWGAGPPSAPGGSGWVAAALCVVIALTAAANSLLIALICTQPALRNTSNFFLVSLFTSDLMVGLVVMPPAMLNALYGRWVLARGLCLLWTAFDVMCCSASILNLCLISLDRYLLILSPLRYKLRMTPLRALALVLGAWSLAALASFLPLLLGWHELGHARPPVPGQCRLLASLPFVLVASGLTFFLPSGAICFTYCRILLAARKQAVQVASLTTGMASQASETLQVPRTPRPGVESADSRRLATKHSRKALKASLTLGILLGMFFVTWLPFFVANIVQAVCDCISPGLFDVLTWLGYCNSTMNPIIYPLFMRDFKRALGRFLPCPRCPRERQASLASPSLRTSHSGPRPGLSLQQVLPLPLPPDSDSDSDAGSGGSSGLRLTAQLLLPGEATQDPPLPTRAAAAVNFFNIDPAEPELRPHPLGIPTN
In words: 5-HT6 receptor binding affinity (procedures outlined in WO 98/27081). An excerpt:
Compounds can be tested following the procedures outlined in WO 98/27081.
For the molecule `O=S(=O)(c1ccc2c(c1)CNCC2)n1ccc2ccccc21` [Example E1, 7-(Indole-1-sulfonyl)-1,2,3,4-tetrahydro-isoquinoline Hydrochloride], the Ki (as a rule, the equilibrium dissociation constant of an inhibitor or competing ligand from its target) is 1.26 to 6.31 nM. Consider `O=S(=O)(c1ccc2c(c1)CNCC2)n1c2c(c3ccccc31)CCCC2` [Example E9, 9-(1,2,3,4-Tetrahydro-isoquinoline-7-sulfonyl)-2,3,4,9-tetrahydro-1H-carbazole], for which the Ki was 1.26 to 6.31 nM. The molecule `Cc1cn(S(=O)(=O)c2ccc3c(c2)CNCC3)c2ccccc12` [Example E10, 7-(3-Methyl-indole-1-sulfonyl)-1,2,3,4-tetrahydro-isoquinoline] showed a Ki of 1.26 to 6.31 nM. As to `O=S(=O)(c1ccc2c(c1)CNCC2)n1c(-c2ccccc2)cc2cc(F)ccc21` [Example E13, 7-(5-Fluoro-2-phenyl-indole-1-sulfonyl)-1,2,3,4-tetrahydro-isoquinoline], the Ki is 1.26 to 6.31 nM. Molecule `O=S(=O)(c1ccc2c(c1)CNCC2)n1ccc2ccc(Cl)cc21` [Example E16, 7-(6-Chloro-indole-1-sulfonyl)-1,2,3,4-tetrahydro-isoquinoline] had a Ki of 1.26 to 6.31 nM. `O=S(=O)(c1ccc2c(c1)CNCC2)n1ccc2c(Cl)cccc21` [Example E17, 7-(4-Chloro-indole-1-sulfonyl)-1,2,3,4-tetrahydro-isoquinoline] showed a Ki of 1.26 to 6.31 nM. For the molecule `COc1ccc2ccn(S(=O)(=O)c3ccc4c(c3)CNCC4)c2c1` [Example E19, 7-(6-Methoxy-indole-1-sulfonyl)-1,2,3,4-tetrahydro-isoquinoline], the Ki was 1.26 to 6.31 nM. In the case of `Cc1ccc2ccn(S(=O)(=O)c3ccc4c(c3)CNCC4)c2c1` [Example E20, 7-(6-Methyl-indole-1-sulfonyl)-1,2,3,4-tetrahydro-isoquinoline], the Ki was 1.26 to 6.31 nM.

For the molecule `Cc1cccc2c1ccn2S(=O)(=O)c1ccc2c(c1)CNCC2` [Example E21, 7-(4-Methyl-indole-1-sulfonyl)-1,2,3,4-tetrahydro-isoquinoline], the Ki is 1.26 to 6.31 nM. `O=S(=O)(c1ccc2c(c1)CNCC2)n1ccc2ccc(F)cc21` [Example E22, 7-(6-Fluoro-indole-1-sulfonyl)-1,2,3,4-tetrahydro-isoquinoline] had a Ki of 1.26 to 6.31 nM. In turn, `O=S(=O)(c1ccc2c(c1)CNCC2)n1ccc2cc(F)c(F)cc21` [Example E23, 7-(5,6-Difluoro-indole-1-sulfonyl)-1,2,3,4-tetrahydro-isoquinoline] showed a Ki of 1.26 to 6.31 nM. `O=S(=O)(c1ccc2c(c1)CNCC2)n1ccc2ccc(C(F)(F)F)cc21` [Example E24, 7-(6-Trifluoromethyl-indole-1-sulfonyl)-1,2,3,4-tetrahydro-isoquinoline] had a Ki of 1.26 to 6.31 nM. `O=S(=O)(c1ccc2c(c1)CNCC2)n1c2ccccc2c2ccccc21` [Example E26, 9-(1,2,3,4-tetrahydro-isoquinoline-7-sulfonyl)-9H-carbazole] had a Ki of 1.26 to 6.31 nM. The result for `O=S(=O)(c1ccc2c(c1)CNCC2)n1cc(-c2ccccc2)c2ccccc21` [Example E35, 7-(3-Phenyl-indole-1-sulfonyl)-1,2,3,4-tetrahydro-isoquinoline Hydrochloride] reads 1.26 to 6.31 nM.
